Reference: the supplement of paper PMC11061612

Columns and labels:
Assay in all cases: combination Emax (second highest fraction inhibited in the dose matrix, 72 h); higher = more inhibition; extreme values may be limits of the assay
[1] = system: ALL-SIL (T-Lymphoblastic Leukemia)
Summary of the method: (§1)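 Bliss excess equals the observed combination effect minus the expected value EA + EB − EA·EB, where EA and EB are the effects of each agent alone. Combination Emax is the second-highest inhibition within the matrix. Inhibition was scaled from CellTiter-Glo 2.0 luminescence, with 0 set by vehicle wells and 1 by blank wells, after 72 hours of two-drug dosing of cells plated in 1536-well plates.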

[2] = system: CADO-ES1 (Ewing's Sarcoma)
Summary of the method: as §1

[3] = system: COLO-668 (Small Cell Lung Carcinoma)
Summary of the method: as §1

[4] = system: Ca-Ski (Cervical Carcinoma)
Summary of the method: as §1

[5] = system: DU-145 (Prostate Carcinoma)
Summary of the method: as §1

[6] = system: EFO-21 (Ovarian Carcinoma)
Summary of the method: as §1

[7] = system: EJM (Plasma Cell Myeloma)
Summary of the method: as §1

[8] = system: G-401 (Other Solid Carcinomas)
Summary of the method: as §1

[9] = system: HCC2998 (Colorectal Carcinoma)
Summary of the method: as §1

[10] = system: Hey (Ovarian Carcinoma)
Summary of the method: as §1

[11] = system: KMRC-1 (Kidney Carcinoma)
Summary of the method: as §1

[12] = system: LC-1-sq (Squamous Cell Lung Carcinoma)
Summary of the method: as §1

[13] = system: ML-2 (Acute Myeloid Leukemia)
Summary of the method: as §1

[14] = system: Mo-T (Other Blood Carcinomas)
Summary of the method: as §1

[15] = system: NCI-H1355 (Lung Adenocarcinoma)
Summary of the method: as §1

[16] = system: NCI-H522 (Lung Adenocarcinoma)
Summary of the method: as §1

[17] = system: OE33 (Esophageal Adenocarcinoma)
Summary of the method: as §1

[18] = system: SK-N-AS (Neuroblastoma)
Summary of the method: as §1

[19] = system: SKN (Other Solid Carcinomas)
Summary of the method: as §1

[20] = system: SW982 (Other Solid Carcinomas)
Summary of the method: as §1

Compound	combination Emax [1]	combination Emax [2]	combination Emax [3]	combination Emax [4]	combination Emax [5]	combination Emax [6]	combination Emax [7]	combination Emax [8]	combination Emax [9]	combination Emax [10]	combination Emax [11]	combination Emax [12]	combination Emax [13]	combination Emax [14]	combination Emax [15]	combination Emax [16]	combination Emax [17]	combination Emax [18]	combination Emax [19]	combination Emax [20]
Cc1c2c(nn1C)CSCc1cc(n(C)n1)CSc1cc(c3ccccc3c1)OCCCc1c(C(=O)O)n(C)c3c-2c(Cl)ccc13 [AZD5991] + CCN(CCO)CCCOc1ccc2c(Nc3cc(CC(=O)Nc4cccc(F)c4)[nH]n3)ncnc2c1 [AZD2811] (first compound max 1 µM, 7x7, partner max 1 µM)	1	0.908	0.235	0.7	0.23	0.343	0.949	0.615	0.94	0.331	0.194	0.428	1	0.189	0.334	0.657	0.139	0.808	0.204	0.688
Cc1c2c(nn1C)CSCc1cc(n(C)n1)CSc1cc(c3ccccc3c1)OCCCc1c(C(=O)O)n(C)c3c-2c(Cl)ccc13 [AZD5991] + CN(C)CCCOc1ccc(-c2ccc3ncc4c(c3c2)n(C2CCOCC2)c(=O)n4C)cn1 [AZD0156] (first compound max 1 µM, 7x7, partner max 1 µM)	0.986	0.946	0.222	0.303	0.192	0.247	0.965	0.733	0.952	0.254	0.197	0.258	1	0.229	0.263	0.387	0.156	0.614	0.278	0.258
Cc1c2c(nn1C)CSCc1cc(n(C)n1)CSc1cc(c3ccccc3c1)OCCCc1c(C(=O)O)n(C)c3c-2c(Cl)ccc13 [AZD5991] + C[C@@H]1COCCN1C2=NC(=NC(=C2)C3(CC3)[S@](=N)(=O)C)C4=C5C=CNC5=NC=C4 [AZD6738] (first compound max 1 µM, 7x7, partner max 10 µM)	1	0.989	0.63	0.717	0.621	0.484	1	0.828	0.994	0.806	0.549	0.845	1	0.483	0.652	0.417	0.784	0.966	0.42	0.748
Cc1c2c(nn1C)CSCc1cc(n(C)n1)CSc1cc(c3ccccc3c1)OCCCc1c(C(=O)O)n(C)c3c-2c(Cl)ccc13 [AZD5991] + Cc1cc2ncnn2cc1Nc1ncc2c(n1)n(C1CCOCC1)c(=O)n2C [AZD7648] (first compound max 1 µM, 7x7, partner max 10 µM)	1	0.893	0.187	0.331	0.23	0.32	0.971	0.616	0.899	0.316	0.203	0.269	1	0.262	0.393	0.362	0.237	0.59	0.305	0.371
C[C@@H]1COCCN1c1cc(C2([S@](C)(=N)=O)CC2)nc(-c2ccnc3[nH]ccc23)n1 [AZD6738] + O=C(c1cc(Cc2n[nH]c(=O)c3ccccc23)ccc1F)N1CCN(C(=O)C2CC2)CC1 [Olaparib] (first compound max 10 µM, 7x7, partner max 10 µM)	0.95	0.915	0.659	0.647	0.548	0.412	0.899	0.491	0.811	0.699	0.566	0.839	0.955	0.552	0.712	0.23	0.721	0.687	0.417	0.781
NC1(C(=O)N[C@@H](CCO)c2ccc(Cl)cc2)CCN(c2ncnc3[nH]ccc23)CC1 [Capivasertib] + CC(=O)c1c(C)c2cnc(Nc3ccc(N4CCNCC4)cn3)nc2n(C2CCCC2)c1=O [Palbociclib] (first compound max 10 µM, 7x7, partner max 10 µM)	0.46	0.274	0.437	0.462	0.166	0.101	0.391	0.898	0.591	0.578	0.457	0.206	0.593	0.4	0.472	0.172	0.259	0.351	0.639	0.607
NC1(C(=O)N[C@@H](CCO)c2ccc(Cl)cc2)CCN(c2ncnc3[nH]ccc23)CC1 [Capivasertib] + CC(C)n1c(=O)n(C)c2cnc3cc(F)c(-c4ccc(OCCCN5CCCCC5)nc4)cc3c21 [AZD1390] (first compound max 10 µM, 7x7, partner max 0.3 µM)	0.389	0.0981	0.401	0.433	0.249	0.217	0.292	0.545	0.398	0.225	0.435	0.253	0.71	0.239	0.273	0.192	0.185	0.157	0.516	0.435
NC1(C(=O)N[C@@H](CCO)c2ccc(Cl)cc2)CCN(c2ncnc3[nH]ccc23)CC1 [Capivasertib] + CCN(CCO)CCCOc1ccc2c(Nc3cc(CC(=O)Nc4cccc(F)c4)[nH]n3)ncnc2c1 [AZD2811] (first compound max 10 µM, 7x7, partner max 1 µM)	0.941	0.243	0.454	0.465	0.219	0.235	0.43	0.658	0.5	0.471	0.494	0.322	1	0.321	0.425	0.226	0.202	0.329	0.555	0.672
NC1(C(=O)N[C@@H](CCO)c2ccc(Cl)cc2)CCN(c2ncnc3[nH]ccc23)CC1 [Capivasertib] + COc1nnc2ccc(N3CCC(c4ccc(OCCN5CCN(C)C(=O)[C@H]5C)cc4)CC3)nn12 [AZD5153] (first compound max 10 µM, 7x7, partner max 1 µM)	0.841	0.356	0.786	0.591	0.251	0.321	0.658	0.79	0.872	0.556	0.557	0.815	0.997	0.649	0.503	0.381	0.319	0.445	0.725	0.848
NC1(C(=O)N[C@@H](CCO)c2ccc(Cl)cc2)CCN(c2ncnc3[nH]ccc23)CC1 [Capivasertib] + C[C@@H]1COCCN1C2=NC(=NC(=C2)C3(CC3)[S@](=N)(=O)C)C4=C5C=CNC5=NC=C4 [AZD6738] (first compound max 10 µM, 7x7, partner max 10 µM)	0.932	0.729	0.677	0.582	0.398	0.415	0.908	0.751	0.814	0.777	0.579	0.74	0.928	0.417	0.773	0.251	0.748	0.738	0.608	0.727
NC1(C(=O)N[C@@H](CCO)c2ccc(Cl)cc2)CCN(c2ncnc3[nH]ccc23)CC1 [Capivasertib] + Cn1cnc2c(F)c(Nc3ccc(Br)cc3Cl)c(C(=O)NOCCO)cc21 [Selumetinib] (first compound max 10 µM, 7x7, partner max 10 µM)	0.513	0.279	0.669	0.597	0.219	0.335	0.403	0.746	0.774	0.773	0.504	0.34	0.985	0.41	0.443	0.268	0.423	0.515	0.594	0.574
COc1cccc2c1C(=O)c1c(O)c3c(c(O)c1C2=O)C[C@@](O)(C(=O)CO)C[C@@H]3O[C@H]1C[C@H](N)[C@H](O)[C@H](C)O1 [Doxorubicin] + Cc1cc2ncnn2cc1Nc1ncc2c(n1)n(C1CCOCC1)c(=O)n2C [AZD7648] (first compound max 1 µM, 7x7, partner max 10 µM)	0.983	0.873	0.93	0.913	0.649	0.482	0.903	0.938	0.943	0.906	0.518	0.727	0.913	0.871	0.624	0.697	0.526	0.723	0.779	0.884
CS(=O)(=O)CCNCc1ccc(-c2ccc3ncnc(Nc4ccc(OCc5cccc(F)c5)c(Cl)c4)c3c2)o1 [Lapatinib] + C[C@@H](Oc1cc(-c2cnn(C3CCNCC3)c2)cnc1N)c1c(Cl)ccc(F)c1Cl [Crizotinib] (first compound max 10 µM, 7x7, partner max 10 µM)	1	0.774	0.665	0.969	0.286	0.371	0.937	0.942	0.938	0.865	0.952	0.931	0.983	0.88	0.564	0.457	0.909	0.359	0.743	0.968
